Data published in PubChem BioAssay (NCI).
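Cultured in 96-well plates, cells were exposed to test compound for 48 hours across five concentrations. GI50 marks 50% less growth. TGI: total growth inhibition.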

What was measured:
Experiment in all cases: inhibition of tumour cell growth, NCI panel, 48 h
MALME-3M melanoma = test system: MALME-3M melanoma
OVCAR-4 ovarian = test system: OVCAR-4 ovarian
NCI-H460 lung = test system: NCI-H460 lung
SF-295 CNS = test system: SF-295 CNS
786-0 renal = test system: 786-0 renal
PC-3 prostate = test system: PC-3 prostate
NCI-H522 lung = test system: NCI-H522 lung
DU-145 prostate = test system: DU-145 prostate
NCI-H226 lung = test system: NCI-H226 lung
A498 renal = test system: A498 renal
OVCAR-5 ovarian = test system: OVCAR-5 ovarian
SF-539 CNS = test system: SF-539 CNS
HOP-92 NSCLC = test system: HOP-92 NSCLC
UACC-257 melanoma = test system: UACC-257 melanoma
ACHN renal = test system: ACHN renal
HT29 colon = test system: HT29 colon
SK-MEL-5 melanoma = test system: SK-MEL-5 melanoma
IGROV1 ovarian = test system: IGROV1 ovarian
OVCAR-8 ovarian = test system: OVCAR-8 ovarian
HCC-2998 colon = test system: HCC-2998 colon
MDA-MB-231 breast = test system: MDA-MB-231 breast
RXF 393 renal = test system: RXF 393 renal
LOX IMVI melanoma = test system: LOX IMVI melanoma
NCI/ADR-RES ovarian = test system: NCI/ADR-RES ovarian
T-47D breast = test system: T-47D breast
UO-31 renal = test system: UO-31 renal
SF-268 CNS = test system: SF-268 CNS
SK-MEL-28 melanoma = test system: SK-MEL-28 melanoma
NCI-H23 lung = test system: NCI-H23 lung
SN12C renal = test system: SN12C renal
UACC-62 melanoma = test system: UACC-62 melanoma
HOP-62 NSCLC = test system: HOP-62 NSCLC
MDA-MB-435 = test system: MDA-MB-435
CAKI-1 renal = test system: CAKI-1 renal
M14 melanoma = test system: M14 melanoma
SK-MEL-2 melanoma = test system: SK-MEL-2 melanoma
HCT-15 colon = test system: HCT-15 colon
EKVX NSCLC = test system: EKVX NSCLC
SK-OV-3 ovarian = test system: SK-OV-3 ovarian
TK-10 renal = test system: TK-10 renal
KM12 colon = test system: KM12 colon
OVCAR-3 ovarian = test system: OVCAR-3 ovarian
HCT-116 colon = test system: HCT-116 colon
MCF7 breast = test system: MCF7 breast
A549 NSCLC = test system: A549 NSCLC
COLO 205 colon = test system: COLO 205 colon
BT-549 breast = test system: BT-549 breast
U251 CNS = test system: U251 CNS
SNB-19 CNS = test system: SNB-19 CNS
HS 578T breast = test system: HS 578T breast
SW-620 colon = test system: SW-620 colon
RPMI-8226 leukemia = test system: RPMI-8226 leukemia
SNB-75 CNS = test system: SNB-75 CNS

CN1CCN(C(=O)CCC(=O)Nc2cc3c(c4ccccc24)-c2ccc4ccccc4c2C3)CC1
TGI (MALME-3M melanoma): 3.71 µM | TGI (OVCAR-4 ovarian): 3.08 µM | TGI (NCI-H460 lung): 3.72 µM | TGI (SF-295 CNS): 3.4 µM | TGI (786-0 renal): 3.13 µM | TGI (PC-3 prostate): 3.37 µM | TGI (NCI-H522 lung): 3.2 µM | TGI (DU-145 prostate): 3.52 µM | TGI (NCI-H226 lung): 3.93 µM | TGI (A498 renal): 27.6 µM | TGI (OVCAR-5 ovarian): 3.15 µM | TGI (SF-539 CNS): 3.13 µM | TGI (HOP-92 NSCLC): 3.36 µM | TGI (UACC-257 melanoma): 3.24 µM | TGI (ACHN renal): 3.78 µM | TGI (HT29 colon): 3.23 µM | TGI (SK-MEL-5 melanoma): 3 µM | TGI (IGROV1 ovarian): 2.74 µM | TGI (OVCAR-8 ovarian): 4.38 µM | TGI (HCC-2998 colon): 2.7 µM | TGI (MDA-MB-231 breast): 2.93 µM | TGI (RXF 393 renal): 3.45 µM | TGI (LOX IMVI melanoma): 4.04 µM | TGI (NCI/ADR-RES ovarian): 4.55 µM | TGI (T-47D breast): 3.57 µM | TGI (UO-31 renal): 3.28 µM | TGI (SF-268 CNS): 3.57 µM | TGI (SK-MEL-28 melanoma): 3.26 µM | TGI (NCI-H23 lung): 3.47 µM | TGI (SN12C renal): 3.64 µM | TGI (UACC-62 melanoma): 3.32 µM | TGI (HOP-62 NSCLC): 3.15 µM | TGI (MDA-MB-435): 3.02 µM | TGI (CAKI-1 renal): 3.16 µM | TGI (M14 melanoma): 2.97 µM | TGI (SK-MEL-2 melanoma): 3.65 µM | TGI (HCT-15 colon): 3.68 µM | TGI (EKVX NSCLC): 3.13 µM | TGI (SK-OV-3 ovarian): 3.09 µM | TGI (TK-10 renal): 3.27 µM | TGI (KM12 colon): 3.2 µM | TGI (OVCAR-3 ovarian): 3.22 µM | TGI (HCT-116 colon): 2.95 µM | TGI (MCF7 breast): 3.03 µM | TGI (A549 NSCLC): 3.96 µM | TGI (COLO 205 colon): 3 µM | TGI (BT-549 breast): 2.84 µM | TGI (U251 CNS): 4.11 µM | TGI (SNB-19 CNS): 3.93 µM | TGI (HS 578T breast): 5.81 µM

CCC(C)(C)c1cc(O)c(C(C)(C)CC)cc1O
GI50 (OVCAR-4 ovarian): 3.26 µM | TGI (OVCAR-4 ovarian): 14.1 µM | GI50 (NCI-H460 lung): 2.25 µM | TGI (NCI-H460 lung): 6.53 µM | GI50 (SF-295 CNS): 2.25 µM | TGI (SF-295 CNS): 5.18 µM | GI50 (PC-3 prostate): 3.43 µM | TGI (PC-3 prostate): 13.2 µM | GI50 (NCI-H522 lung): 1.98 µM | TGI (NCI-H522 lung): 6.03 µM | GI50 (DU-145 prostate): 4.39 µM | TGI (DU-145 prostate): 17.1 µM | GI50 (NCI-H226 lung): 3.63 µM | TGI (NCI-H226 lung): 15.2 µM | GI50 (SW-620 colon): 2.35 µM | TGI (SW-620 colon): 6.89 µM | GI50 (A498 renal): 0.732 µM | TGI (A498 renal): 8.5 µM | GI50 (OVCAR-5 ovarian): 4.97 µM | TGI (OVCAR-5 ovarian): 17.6 µM | GI50 (SF-539 CNS): 2.7 µM | TGI (SF-539 CNS): 9.23 µM | GI50 (HOP-92 NSCLC): 1.63 µM | TGI (HOP-92 NSCLC): 5.62 µM | GI50 (UACC-257 melanoma): 3.44 µM | TGI (UACC-257 melanoma): 12.1 µM | GI50 (ACHN renal): 4.62 µM | TGI (ACHN renal): 16.1 µM | GI50 (HT29 colon): 2.13 µM | TGI (HT29 colon): 5.27 µM | GI50 (SK-MEL-5 melanoma): 2.2 µM | TGI (SK-MEL-5 melanoma): 5.26 µM | GI50 (OVCAR-8 ovarian): 4.48 µM | TGI (OVCAR-8 ovarian): 23.5 µM | GI50 (HCC-2998 colon): 2.3 µM | TGI (HCC-2998 colon): 5.36 µM | GI50 (MDA-MB-231 breast): 2.35 µM | TGI (MDA-MB-231 breast): 8.04 µM | GI50 (RXF 393 renal): 2.69 µM | TGI (RXF 393 renal): 7.25 µM | GI50 (LOX IMVI melanoma): 2.1 µM | TGI (LOX IMVI melanoma): 4.62 µM | GI50 (RPMI-8226 leukemia): 2.41 µM | TGI (RPMI-8226 leukemia): 9.09 µM | GI50 (NCI/ADR-RES ovarian): 2.96 µM | TGI (NCI/ADR-RES ovarian): 11.3 µM | GI50 (T-47D breast): 4.56 µM | TGI (T-47D breast): 19.5 µM | GI50 (SF-268 CNS): 3.92 µM | TGI (SF-268 CNS): 15.6 µM | GI50 (SK-MEL-28 melanoma): 2.82 µM | TGI (SK-MEL-28 melanoma): 10.9 µM | GI50 (NCI-H23 lung): 3.18 µM | TGI (NCI-H23 lung): 12.4 µM | GI50 (SN12C renal): 3.2 µM | TGI (SN12C renal): 16.4 µM | GI50 (UACC-62 melanoma): 2.28 µM | TGI (UACC-62 melanoma): 6.84 µM | GI50 (MDA-MB-435): 2.62 µM | TGI (MDA-MB-435): 10.9 µM | GI50 (CAKI-1 renal): 2.44 µM | TGI (CAKI-1 renal): 7.74 µM | GI50 (SNB-75 CNS): 3.14 µM | TGI (SNB-75 CNS): 16.5 µM | GI50 (SK-MEL-2 melanoma): 1.85 µM | TGI (SK-MEL-2 melanoma): 4.33 µM | GI50 (HCT-15 colon): 3.66 µM | TGI (HCT-15 colon): 15.1 µM | GI50 (EKVX NSCLC): 2.54 µM | TGI (EKVX NSCLC): 14.6 µM | GI50 (SK-OV-3 ovarian): 4.41 µM | TGI (SK-OV-3 ovarian): 14.9 µM | GI50 (TK-10 renal): 2.46 µM | TGI (TK-10 renal): 8.19 µM | GI50 (KM12 colon): 3.52 µM | TGI (KM12 colon): 12.6 µM | GI50 (OVCAR-3 ovarian): 2.78 µM | TGI (OVCAR-3 ovarian): 7.54 µM | GI50 (MCF7 breast): 2.46 µM | TGI (MCF7 breast): 11.6 µM | GI50 (A549 NSCLC): 3.2 µM | TGI (A549 NSCLC): 11.9 µM | GI50 (COLO 205 colon): 2.42 µM | TGI (COLO 205 colon): 5.28 µM | GI50 (U251 CNS): 2.18 µM | TGI (U251 CNS): 6.23 µM | GI50 (SNB-19 CNS): 2.69 µM | TGI (SNB-19 CNS): 12.6 µM
